According to patent publication US12728123B2, “Product” (Sesh Products Inc., priority 2012, dated 2026):

Details: at a pH of about 8.8

Compound: CN1CCCC1c1cccnc1 (stereo not shown) [nicotine]
- nicotine in the nonprotonated form: approximately 90%
